By IC50 is commonly meant the concentration needed to halve the response being measured.

Read-outs that look alike come from different tables or passages of the source.

The target of one test is GLS1 (Homo sapiens (Human), UniProt O94925). Description: GLS Enzyme Potency Assay (Glutamate Oxidase/AmplexRed coupled assay). The following applies: 6His tagged GLS protein (amino acids 63-669), recombinant; read-out: Assay a) enz IC50. Type of test: biochemical. The source says:
(§1) The following assays were used to measure the effects of the compounds described herein: a) GLS Enzyme Potency Assay; b) GLS Cell Potency Assay; c) GLS Cell Proliferation Assay. During the description of the assays, generally: • i. The following abbreviations have been used: CO2=Carbon dioxide; DMEM=Dulbecco's Modified Eagle Medium; DMSO=Dimethyl sulphoxide; EDTA=Ethylenediaminetetraacetic acid; EGTA=Ethylene glycol tetraacetic acid; FCS=Foetal calf serum; h=Hour(s); NBS=Non-binding surface; SDS=Sodium dodecyl sulphate; TRIS=Tris(Hydroxymethyl)aminomethane. • ii. IC50 values were calculated using a smart fitting model in Genedata.
Assay a): GLS Enzyme Potency Assay
A Glutamate Oxidase/AmplexRed coupled assay was used to measure the ability of compounds to bind to and inhibit the activity of GLS1 in vitro. […] GLS1 was diluted to 2× working concentration and incubated at room temperature to allow the tetrameric/dimeric forms to reach steady state. Assay measurements were performed in buffer comprising 50 mM TRIS pH 7.8, 100 mM NaPO4, pH 7.8, 0.001% v/v Tween20. Purified recombinant GLS1 protein was diluted in assay buffer to 12 nM and pre-incubated at room temperature for 30 minutes. […] DMSO concentration was maintained at 2% by back filling with DMSO solution. 3 μL of diluted GLS1 protein (12 nM) was then dispensed into each well using a BioRaptr automated dispenser (Beckman-Coulter) and incubated for 15 minutes at room temperature. 3 μL of 100 mM glutamine diluted in assay buffer was then added and the reaction incubated at room temperature for 60 minutes. […] An artefact version of the assay where the 6His tagged GLS protein and glutamine were replaced with assay buffer was also used to rule out non specific effects on the assay components.

Another test relates to NCI-H1703 cells. In words: GLS Cell Proliferation Assay (NCI-H1703 cell proliferation). Type of test: cell-based.
Source text: as §1
Assay c): GLS Cell Proliferation Assay
The ability of compounds to inhibit cell growth was measured using a 384 well plate NCI-H1703 cell proliferation assay. NCI-H1703 cells were grown in phenol red free RPMI1640, 10% FCS and 2 mM glutamine and seeded at a density of 750 cells per well in 40 μl of growth medium into clear-bottom 384 well assay plates (Corning product code 3712) and incubated for 24 h at 37° C., 5% CO2. […] DMSO concentration was maintained at 0.3% by back filling with DMSO solution. Plates were incubated for 5 days at 37° C., 5% CO2, Sytox Green and Saponin added to final concentration of 2 μM and 0.25% respectively and incubated for 6 h prior to analysis. […] IC50 values were calculated by curve fitting to max inhibition of day zero growth using GeneData software analysis.

The target in test [1] is cellular GLS activity in PC3 cells (Homo sapiens (Human), UniProt O94925). In words: GLS Cell Potency Assay (PC3 coupled assay measuring cellular glutamate depletion). Type of test: cell-based. The following applies: PC3 cells, 6 h incubation, glutamate depletion; read-out: Assay b) GLS cell MOA Mean IC50.
Chain of cellular GLS activity in PC3 cells (O94925 73-669): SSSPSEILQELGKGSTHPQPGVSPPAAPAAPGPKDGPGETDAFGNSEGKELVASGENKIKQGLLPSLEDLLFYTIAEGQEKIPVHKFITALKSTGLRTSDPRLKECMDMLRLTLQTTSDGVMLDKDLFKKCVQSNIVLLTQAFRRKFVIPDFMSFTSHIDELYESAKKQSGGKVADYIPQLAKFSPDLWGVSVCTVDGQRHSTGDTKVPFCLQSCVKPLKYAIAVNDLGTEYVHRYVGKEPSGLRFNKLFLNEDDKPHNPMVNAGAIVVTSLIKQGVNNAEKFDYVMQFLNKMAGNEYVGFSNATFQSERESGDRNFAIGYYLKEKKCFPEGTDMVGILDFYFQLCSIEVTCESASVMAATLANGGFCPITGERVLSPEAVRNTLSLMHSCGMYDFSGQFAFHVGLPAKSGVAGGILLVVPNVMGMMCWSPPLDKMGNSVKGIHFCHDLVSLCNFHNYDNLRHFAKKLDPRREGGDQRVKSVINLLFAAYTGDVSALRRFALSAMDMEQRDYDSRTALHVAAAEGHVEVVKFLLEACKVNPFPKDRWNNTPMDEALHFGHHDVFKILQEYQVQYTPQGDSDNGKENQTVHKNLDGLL
Source text: as §1
Assay b): GLS Cell Potency Assay
Compounds were assessed for their potential to inhibit cellular GLS activity by use of a PC3 coupled assay measuring cellular glutamate depletion. […] DMSO concentration was maintained at 0.3% by back filling with DMSO solution. PC3 cells were grown in phenol free DMEM, 10% dialyzed FCS, 2 mM glutamine and following dispersal by trypsinisation were plated at 5.6×10^3 cells per well in 40 μl of growth medium directly into the 384 well assay plates containing dispensed compound. After incubation for 6 h at 37° C., 5% CO2 growth media was aspirated and cells lysed in 15 μl of buffer containing 10 mM TRIS pH7.4, 100 mM NaCl, 1 mM EDTA, 1 mM EGTA, 1 mM NaF, 20 mM Na4P2O7, 2 mM Na3VO4, 1% Triton X-100, 10% glycerol, 0.1% SDS and 0.5% deoxycholate.

[2] abbreviates: NCI-H1703 cells, 5 days; read-out: Assay c) Prolif Mean IC50.
Setting [3] is: Homo sapiens, NCI-H1703, 120 h, NCI-H1703 cells, 5 days; read-out: Assay c) Prolif Mean IC50.

Chain of GLS1 (O94925 63-669): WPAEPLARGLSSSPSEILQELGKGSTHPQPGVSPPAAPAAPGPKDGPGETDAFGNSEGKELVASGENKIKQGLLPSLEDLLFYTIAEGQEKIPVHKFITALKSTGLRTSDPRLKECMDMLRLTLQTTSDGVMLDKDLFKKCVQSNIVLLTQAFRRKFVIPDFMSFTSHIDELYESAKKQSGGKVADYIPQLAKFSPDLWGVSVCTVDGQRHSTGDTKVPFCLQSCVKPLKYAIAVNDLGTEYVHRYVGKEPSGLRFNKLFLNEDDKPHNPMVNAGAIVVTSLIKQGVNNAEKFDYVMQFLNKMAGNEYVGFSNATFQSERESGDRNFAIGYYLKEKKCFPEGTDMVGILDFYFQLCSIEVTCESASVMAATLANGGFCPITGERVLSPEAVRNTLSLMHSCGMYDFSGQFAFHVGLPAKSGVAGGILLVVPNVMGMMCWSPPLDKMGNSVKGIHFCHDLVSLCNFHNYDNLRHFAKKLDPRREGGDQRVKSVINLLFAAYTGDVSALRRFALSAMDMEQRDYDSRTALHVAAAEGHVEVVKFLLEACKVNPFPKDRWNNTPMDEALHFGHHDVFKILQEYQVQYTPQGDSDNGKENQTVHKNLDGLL

As for `CCOC(C(=O)Nc1nnc(N[C@@H]2CCN(c3cccnn3)C2)s1)c1cccc(N2CC(F)C2)c1` (single isomer, unassigned) [Example 31], the IC50 at GLS1 was found to be 96.8 nM; with NCI-H1703 cells (setting [2]) it was 3.21 nM; in test [1], 0.573 nM.

On to `COC(C(=O)Nc1nnc(N[C@@H]2CCN(c3ccc(C)nn3)C2)s1)c1cccc(N2CC(F)C2)c1` (single isomer, unassigned) [Example 35], for which the values for the IC50 (at GLS1; in the test with NCI-H1703 cells (setting [2]); in test [1]) were 77 nM, 9.03 nM and 1.21 nM, respectively.

For `COC(C(=O)Nc1nnc(N[C@@H]2CCN(c3ccc(C)nn3)C2)s1)c1cccc(N2CC(F)C2)c1` (single isomer, unassigned) [Example 36], the IC50 is 612 nM at GLS1, 394 nM with NCI-H1703 cells (setting [2]) and 21.8 nM in test [1].

As to `COc1cc(OC)cc(C(OC)C(=O)Nc2nnc(N[C@@H]3CCN(c4cccnn4)C3)s2)c1` (single isomer, unassigned) [Example 43], the IC50 was determined as 20 nM on GLS1, 2.24 nM in the test with NCI-H1703 cells (setting [2]) and 0.292 nM in test [1].

As for `COc1cc(OC)cc(C(OC)C(=O)Nc2nnc(N[C@@H]3CCN(c4cccnn4)C3)s2)c1` (single isomer, unassigned) [Example 44], the figures for the IC50 (on GLS1; in the test with NCI-H1703 cells (setting [2]); in test [1]) were 48.2 nM, 59.1 nM and 8.85 nM, respectively.

Consider `COc1cc(OC)cc([C@H](OC)C(=O)Nc2nnc(N[C@@H]3CCN(c4cccnn4)C3)s2)c1` [Example 21(a), (2S)-2-(3,5-Dimethoxyphenyl)-2-methoxy-N-[5-[[(3R)-1-pyridazin-3-ylpyrrolidin-3-yl]amino]-1,3,4-thiadiazol-2-yl]acetamide], for which the IC50 is 20 nM on GLS1, 2.24 nM in the test on NCI-H1703 cells (setting [3]) and 0.292 nM in test [1].

As to `COc1cc(OC)cc([C@@H](OC)C(=O)Nc2nnc(N[C@@H]3CCN(c4cccnn4)C3)s2)c1` [Example 21(b), (2R)-2-(3,5-Dimethoxyphenyl)-2-methoxy-N-[5-[[(3R)-1-pyridazin-3-ylpyrrolidin-3-yl]amino]-1,3,4-thiadiazol-2-yl]acetamide], the IC50 at GLS1 came out at 48.2 nM; in the test with NCI-H1703 cells (setting [3]), 59.1 nM; in test [1], 8.85 nM.

Consider `COc1cc(OC)cc(C(OC)C(=O)Nc2nnc(N[C@@H]3CCN(c4cccnn4)C3)s2)c1` (stereo partly drawn) [Example 23, 2-(3,5-dimethoxyphenyl)-2-methoxy-N-[5-[[(3R)-1-pyridazin-3-ylpyrrolidin-3-yl]amino]-1,3,4-thiadiazol-2-yl]acetamide], for which the IC50 at GLS1 came out at 48.2 nM; in the test with NCI-H1703 cells (setting [3]), 59.1 nM; in test [1], 8.85 nM.

Take `COc1cc(OC)cc(C(OC)C(=O)Nc2nnc(N[C@@H]3CCN(c4ccc(F)nn4)C3)s2)c1` (stereo partly drawn) [Example 26, 2-(3,5-dimethoxyphenyl)-N-[5-[[(3R)-1-(6-fluoropyridazin-3-yl)pyrrolidin-3-yl]amino]-1,3,4-thiadiazol-2-yl]-2-methoxy-acetamide]: the IC50 on GLS1 turned out to be 23.5 nM; in the test on NCI-H1703 cells (setting [3]) it was 4.2 nM; in test [1], 0.334 nM.

For `COC(C(=O)Nc1nnc(N[C@@H]2CCN(c3cccnn3)C2)s1)c1ccc(F)c(N2CC(F)(F)C2)c1` (stereo partly drawn) [Example 37, 2-[3-(3,3-difluoroazetidin-1-yl)-4-fluoro-phenyl]-2-methoxy-N-[5-[[(3R)-1-pyridazin-3-ylpyrrolidin-3-yl]amino]-1,3,4-thiadiazol-2-yl]acetamide], the IC50 stood at 147 nM at GLS1, 21.1 nM with NCI-H1703 cells (setting [2]) and 0.556 nM in test [1].

For `COC(C(=O)Nc1nnc(N[C@@H]2CCN(c3ccc(C)nn3)C2)s1)c1cccc(N2CC(F)(F)C2)c1` (stereo partly drawn) [Example 39, 2-[3-(3,3-difluoroazetidin-1-yl)phenyl]-2-methoxy-N-[5-[[(3R)-1-(6-methylpyridazin-3-yl)pyrrolidin-3-yl]amino]-1,3,4-thiadiazol-2-yl]acetamide], the figures for the IC50 (on GLS1; in the test on NCI-H1703 cells (setting [2]); in test [1]) were 130 nM, 5.94 nM and 0.405 nM, respectively.
